The target of one test is KDR (Homo sapiens, UniProt P35968). The test is described as follows: KDR enzyme assay, coupled enzyme assay. The test is classed as biochemical. The note with it: 300 μM ATP, 10 μM poly E4Y, 30 nM KDR, 37° C. In outline: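 Coupled enzyme (PK/LDH, NADH) assay with 30 nM KDR in 200 mM HEPES 7.5, 10 mM MgCl2, 25 mM NaCl, 1 mM DTT, 1.5% DMSO; 300 μM ATP, 10 μM poly E4Y. Compound at 30 μM final, preincubated ~10 min at 37 °C before ATP start; rates read over 5 min at 37 °C.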

The next test concerns the target GSK-3β, (AA 1-420) (Homo sapiens, UniProt P49841). The test is described as follows: GSK-3 inhibition assay, coupled enzyme system. Format: biochemical. The note with it: 20 μM ATP, 300 μM peptide, 20 nM GSK-3b, 30° C.; read-out: Ki values (GSK3). The method in brief: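 Pyruvate kinase/lactate dehydrogenase-coupled NADH assay with 20 nM enzyme, 20 μM ATP and 300 μM peptide in HEPES pH 7.5, 1.5% DMSO, 30° C. Compound (0.002–30 μM, 12-point) preincubated 10 min before ATP start; rates over 10 min gave Ki.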

The term Ki denotes the dissociation constant of the complex between target and ligand, obtained from inhibition or displacement.

Sequence of GSK-3β, (AA 1-420) (P49841 whole entry, the tested form may be a part): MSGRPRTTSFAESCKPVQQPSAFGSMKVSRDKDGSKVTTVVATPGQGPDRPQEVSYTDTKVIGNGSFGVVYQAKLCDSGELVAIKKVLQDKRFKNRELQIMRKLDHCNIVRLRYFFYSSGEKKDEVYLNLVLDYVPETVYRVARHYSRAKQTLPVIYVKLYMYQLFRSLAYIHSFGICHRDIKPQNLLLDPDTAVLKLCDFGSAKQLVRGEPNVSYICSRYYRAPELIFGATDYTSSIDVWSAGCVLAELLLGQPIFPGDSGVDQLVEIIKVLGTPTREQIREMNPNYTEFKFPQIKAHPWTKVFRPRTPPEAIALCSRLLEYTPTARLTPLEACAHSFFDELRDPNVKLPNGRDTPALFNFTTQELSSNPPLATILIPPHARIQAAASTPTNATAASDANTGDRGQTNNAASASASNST
Sequence of KDR (P35968 20-1356): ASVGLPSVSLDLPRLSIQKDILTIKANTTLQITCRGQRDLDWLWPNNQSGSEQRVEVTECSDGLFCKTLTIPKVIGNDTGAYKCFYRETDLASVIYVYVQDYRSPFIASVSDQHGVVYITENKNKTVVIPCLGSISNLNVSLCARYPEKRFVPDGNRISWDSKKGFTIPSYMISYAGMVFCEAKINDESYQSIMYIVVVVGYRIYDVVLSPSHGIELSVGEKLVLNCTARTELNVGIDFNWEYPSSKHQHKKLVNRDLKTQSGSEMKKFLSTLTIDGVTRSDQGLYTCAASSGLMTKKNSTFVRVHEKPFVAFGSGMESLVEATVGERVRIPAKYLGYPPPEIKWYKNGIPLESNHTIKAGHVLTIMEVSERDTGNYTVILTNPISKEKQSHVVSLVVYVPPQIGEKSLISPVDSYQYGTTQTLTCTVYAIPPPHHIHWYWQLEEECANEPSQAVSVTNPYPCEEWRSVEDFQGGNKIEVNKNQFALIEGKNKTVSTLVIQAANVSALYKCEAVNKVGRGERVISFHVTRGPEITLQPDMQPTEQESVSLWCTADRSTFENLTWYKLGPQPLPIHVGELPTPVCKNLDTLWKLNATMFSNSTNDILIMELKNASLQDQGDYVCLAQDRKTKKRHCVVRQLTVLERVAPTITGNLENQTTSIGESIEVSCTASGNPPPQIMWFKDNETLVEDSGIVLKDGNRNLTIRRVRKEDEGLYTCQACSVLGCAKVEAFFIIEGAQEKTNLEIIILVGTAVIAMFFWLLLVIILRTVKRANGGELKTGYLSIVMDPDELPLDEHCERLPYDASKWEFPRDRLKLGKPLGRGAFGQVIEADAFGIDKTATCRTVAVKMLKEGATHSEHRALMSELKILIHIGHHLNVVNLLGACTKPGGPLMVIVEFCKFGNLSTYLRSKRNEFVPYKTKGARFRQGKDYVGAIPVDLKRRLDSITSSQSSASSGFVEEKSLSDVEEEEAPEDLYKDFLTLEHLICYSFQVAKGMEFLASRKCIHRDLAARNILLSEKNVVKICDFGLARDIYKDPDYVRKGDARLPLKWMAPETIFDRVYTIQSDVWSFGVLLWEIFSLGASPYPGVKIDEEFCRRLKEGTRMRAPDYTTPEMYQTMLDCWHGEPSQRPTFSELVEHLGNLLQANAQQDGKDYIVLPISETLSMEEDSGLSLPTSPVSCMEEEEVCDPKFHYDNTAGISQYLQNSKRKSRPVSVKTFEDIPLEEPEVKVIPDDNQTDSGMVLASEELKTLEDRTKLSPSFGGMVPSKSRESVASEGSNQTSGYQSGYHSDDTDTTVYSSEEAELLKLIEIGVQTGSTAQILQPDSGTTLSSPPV

Take `CN1CCCN(c2ccc(-c3cnc4[nH]cc(-c5nncn5-c5cccc(F)c5F)c4c3)cn2)CC1` [Compound 117, 3-[4-(2,3-Difluoro-phenyl)-4H-[1,2,4]triazol-3-yl]-5-[6-(4-methyl-[1,4]diazepan-1-yl)-pyridin-3-yl]-1H-pyrrolo [2,3-b]-pyridine]: the inhibitory constant (Ki) at KDR is 200 to 1000 nM; on GSK-3β, (AA 1-420), 200 to 1000 nM.

For the compound `Fc1cccc(-n2cnnc2-c2c[nH]c3ncc(-c4ccc(N5CCCC5)nc4)cc23)c1F` [Compound 118, 3-[4-(2,3-Difluoro-phenyl)-4H-[1,2,4]triazol-3-yl]-5-(6-pyrrolidin-1-yl-pyridin-3-yl)-1H-pyrrolo[2,3-b]pyridine], the Ki at KDR was 200 to 1000 nM; on GSK-3β, (AA 1-420), 200 to 1000 nM.

With `CN(C)CCNc1ccc(-c2cnc3[nH]cc(-c4nncn4-c4cccc(F)c4F)c3c2)cn1` [Compound 119, N′-(5-{3-[4-(2,3-Difluoro-phenyl)-4H-[1,2,4]triazol-3-yl]-1H-pyrrolo[2,3-b]pyridin-5-yl}-pyridin-2-yl)-N,N-dimethyl-ethane-1,2-diamine], the Ki was 200 to 1000 nM at KDR and 200 to 1000 nM at GSK-3β, (AA 1-420).

With `Fc1cccc(-c2cnoc2-c2c[nH]c3ncc(/C=C/n4cncn4)cc23)c1F` [Compound 133, 3-[4-(2,3-Difluoro-phenyl)-isoxazol-5-yl]-5-(2-[1,2,4]triazol-1-yl-vinyl)-1H-pyrrolo[2,3-b]pyridine], the Ki was less than 200 nM at KDR and less than 200 nM on GSK-3β, (AA 1-420).

As to `Cc1noc(-c2c[nH]c3ncccc23)c1-c1cccc(F)c1F` [Compound 134, 3-[4-(2,3-Difluoro-phenyl)-3-methyl-isoxazol-5-yl]-1H-pyrrolo[2,3-b]pyridine], the Ki fell in the range of 1000 to 12500 nM on KDR and 200 to 1000 nM on GSK-3β, (AA 1-420).

As for `Cc1noc(-c2c[nH]c3ncc(-c4ccc(N5CCN(C)CC5)cc4)cc23)c1-c1cccc(F)c1F` [Compound 135, 3-[4-(2,3-Difluoro-phenyl)-3-methyl-isoxazol-5-yl]-5-[4-(4-methyl-piperazin-1-yl)-phenyl]-1H-pyrrolo[2,3-b]pyridine], the Ki on KDR is 200 to 1000 nM; on GSK-3β, (AA 1-420), less than 200 nM.

In the case of `Fc1cccc(-c2cnoc2-c2c[nH]c3ncc(C4=CCC(NCc5ccccc5)CC4)cc23)c1F` (stereo not shown) [Compound 136, Benzyl-(4-{3-[4-(2,3-difluoro-phenyl)-isoxazol-5-yl]-1H-pyrrolo[2,3-b]pyridin-5-yl}-cyclohex-3-enyl)-amine], the Ki was in the range of 200 to 1000 nM at KDR and 200 to 1000 nM on GSK-3β, (AA 1-420).

`NC1CC=C(c2cnc3[nH]cc(-c4oncc4-c4cccc(F)c4F)c3c2)CC1` (stereo not shown) [Compound 137, 4-{3-[4-(2,3-Difluoro-phenyl)-isoxazol-5-yl]-1H-pyrrolo [2,3-b]pyridin-5-yl}-cyclohex-3-enylamine]: the Ki on KDR is less than 200 nM; at GSK-3β, (AA 1-420) it was less than 200 nM.

For the compound `CN(C)C1CC=C(c2cnc3[nH]cc(-c4oncc4-c4cccc(F)c4F)c3c2)CC1` (stereo not shown) [Compound 138, (4-{3-[4-(2,3-Difluoro-phenyl)-isoxazol-5-yl]-1H-pyrrolo[2,3-b]pyridin-5-yl}-cyclohex-3-enyl)-dimethyl-amine], the Ki was less than 200 nM on KDR and less than 200 nM at GSK-3β, (AA 1-420).

With `Fc1cccc(-c2cnoc2-c2c[nH]c3ncc(C4=CCC(N5CCOCC5)CC4)cc23)c1F` (stereo not shown) [Compound 139, 3-[4-(2,3-Difluoro-phenyl)-isoxazol-5-yl]-5-(4-morpholin-4-yl-cyclohex-1-enyl)-1H-pyrrolo[2,3-b]pyridine], the Ki on KDR is 200 to 1000 nM; at GSK-3β, (AA 1-420), less than 200 nM.

For `CS(=O)(=O)NC1CC=C(c2cnc3[nH]cc(-c4oncc4-c4cccc(F)c4F)c3c2)CC1` (stereo not shown) [Compound 140, N-(4-{3-[4-(2,3-Difluoro-phenyl)-isoxazol-5-yl]-1H-pyrrolo[2,3-b]pyridin-5-yl}-cyclohex-3-enyl)-methanesulfonamide], the Ki is less than 200 nM at KDR and less than 200 nM on GSK-3β, (AA 1-420).

The values above are taken from US7446199B2, “Compositions useful as inhibitors of protein kinases” (Vertex Pharmaceuticals Incorporated, priority 2003, dated 2008).
